Consider one compound from paper PMC4599575 (Journal of thrombosis and haemostasis : JTH, 2015).

Assay in all cases: surface plasmon resonance, protein immobilised on CM5 chip, […] Langmuir fit
Common to all, as to format: binding
A general note: SPR reads the build-up and loss of mass on a sensor chip optically.

Test [1] concerns the target T1, rADAMTS13 (rA13) (Homo sapiens, UniProt Q76LX8).
T1 sequence (Q76LX8 75-1427): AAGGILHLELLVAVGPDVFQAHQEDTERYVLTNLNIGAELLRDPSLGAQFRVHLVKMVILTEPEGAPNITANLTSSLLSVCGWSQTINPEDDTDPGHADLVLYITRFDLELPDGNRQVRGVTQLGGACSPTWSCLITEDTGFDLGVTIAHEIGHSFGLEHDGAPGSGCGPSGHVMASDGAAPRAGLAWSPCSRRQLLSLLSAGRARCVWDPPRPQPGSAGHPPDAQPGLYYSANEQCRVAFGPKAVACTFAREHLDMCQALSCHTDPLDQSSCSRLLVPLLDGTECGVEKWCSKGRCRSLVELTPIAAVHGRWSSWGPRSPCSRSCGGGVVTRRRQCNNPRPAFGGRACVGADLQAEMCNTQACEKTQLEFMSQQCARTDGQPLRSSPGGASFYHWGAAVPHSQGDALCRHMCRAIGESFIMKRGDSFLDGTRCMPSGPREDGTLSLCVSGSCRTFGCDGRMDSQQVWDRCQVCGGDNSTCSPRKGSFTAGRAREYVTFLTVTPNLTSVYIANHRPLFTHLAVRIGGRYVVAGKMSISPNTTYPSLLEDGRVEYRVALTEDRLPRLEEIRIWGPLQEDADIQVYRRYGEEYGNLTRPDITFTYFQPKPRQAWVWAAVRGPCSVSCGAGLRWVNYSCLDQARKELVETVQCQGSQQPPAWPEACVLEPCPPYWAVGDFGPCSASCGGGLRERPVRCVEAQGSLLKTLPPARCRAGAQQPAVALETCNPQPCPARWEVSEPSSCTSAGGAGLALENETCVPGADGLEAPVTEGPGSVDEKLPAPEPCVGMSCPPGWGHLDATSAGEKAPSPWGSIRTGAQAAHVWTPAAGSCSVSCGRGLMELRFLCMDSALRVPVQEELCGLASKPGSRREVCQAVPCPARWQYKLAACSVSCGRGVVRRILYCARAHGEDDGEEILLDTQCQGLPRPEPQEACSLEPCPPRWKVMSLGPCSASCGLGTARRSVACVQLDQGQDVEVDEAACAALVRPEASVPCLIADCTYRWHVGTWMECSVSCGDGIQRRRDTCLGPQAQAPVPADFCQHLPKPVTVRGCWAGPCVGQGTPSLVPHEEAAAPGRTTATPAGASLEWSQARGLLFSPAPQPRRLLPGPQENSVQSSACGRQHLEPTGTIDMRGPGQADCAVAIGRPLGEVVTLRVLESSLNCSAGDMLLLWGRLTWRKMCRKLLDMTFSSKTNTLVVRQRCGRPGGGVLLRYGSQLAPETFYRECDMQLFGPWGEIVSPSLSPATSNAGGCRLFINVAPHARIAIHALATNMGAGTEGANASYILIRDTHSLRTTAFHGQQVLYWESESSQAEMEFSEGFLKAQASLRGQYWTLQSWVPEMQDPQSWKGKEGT

The target in test [2] is GST-rVWF73-H (GST-VWF73-H) (Homo sapiens, UniProt P04275).
Test [3] addresses VWF (plasma-derived multimeric VWF) (Homo sapiens, UniProt P04275).

Sequence of GST-rVWF73-H (GST-VWF73-H) (P04275 1596-1668 limits assumed): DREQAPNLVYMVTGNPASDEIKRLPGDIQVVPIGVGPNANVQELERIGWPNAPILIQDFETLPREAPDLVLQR
Sequence of VWF (plasma-derived multimeric VWF) (P04275 764-2813): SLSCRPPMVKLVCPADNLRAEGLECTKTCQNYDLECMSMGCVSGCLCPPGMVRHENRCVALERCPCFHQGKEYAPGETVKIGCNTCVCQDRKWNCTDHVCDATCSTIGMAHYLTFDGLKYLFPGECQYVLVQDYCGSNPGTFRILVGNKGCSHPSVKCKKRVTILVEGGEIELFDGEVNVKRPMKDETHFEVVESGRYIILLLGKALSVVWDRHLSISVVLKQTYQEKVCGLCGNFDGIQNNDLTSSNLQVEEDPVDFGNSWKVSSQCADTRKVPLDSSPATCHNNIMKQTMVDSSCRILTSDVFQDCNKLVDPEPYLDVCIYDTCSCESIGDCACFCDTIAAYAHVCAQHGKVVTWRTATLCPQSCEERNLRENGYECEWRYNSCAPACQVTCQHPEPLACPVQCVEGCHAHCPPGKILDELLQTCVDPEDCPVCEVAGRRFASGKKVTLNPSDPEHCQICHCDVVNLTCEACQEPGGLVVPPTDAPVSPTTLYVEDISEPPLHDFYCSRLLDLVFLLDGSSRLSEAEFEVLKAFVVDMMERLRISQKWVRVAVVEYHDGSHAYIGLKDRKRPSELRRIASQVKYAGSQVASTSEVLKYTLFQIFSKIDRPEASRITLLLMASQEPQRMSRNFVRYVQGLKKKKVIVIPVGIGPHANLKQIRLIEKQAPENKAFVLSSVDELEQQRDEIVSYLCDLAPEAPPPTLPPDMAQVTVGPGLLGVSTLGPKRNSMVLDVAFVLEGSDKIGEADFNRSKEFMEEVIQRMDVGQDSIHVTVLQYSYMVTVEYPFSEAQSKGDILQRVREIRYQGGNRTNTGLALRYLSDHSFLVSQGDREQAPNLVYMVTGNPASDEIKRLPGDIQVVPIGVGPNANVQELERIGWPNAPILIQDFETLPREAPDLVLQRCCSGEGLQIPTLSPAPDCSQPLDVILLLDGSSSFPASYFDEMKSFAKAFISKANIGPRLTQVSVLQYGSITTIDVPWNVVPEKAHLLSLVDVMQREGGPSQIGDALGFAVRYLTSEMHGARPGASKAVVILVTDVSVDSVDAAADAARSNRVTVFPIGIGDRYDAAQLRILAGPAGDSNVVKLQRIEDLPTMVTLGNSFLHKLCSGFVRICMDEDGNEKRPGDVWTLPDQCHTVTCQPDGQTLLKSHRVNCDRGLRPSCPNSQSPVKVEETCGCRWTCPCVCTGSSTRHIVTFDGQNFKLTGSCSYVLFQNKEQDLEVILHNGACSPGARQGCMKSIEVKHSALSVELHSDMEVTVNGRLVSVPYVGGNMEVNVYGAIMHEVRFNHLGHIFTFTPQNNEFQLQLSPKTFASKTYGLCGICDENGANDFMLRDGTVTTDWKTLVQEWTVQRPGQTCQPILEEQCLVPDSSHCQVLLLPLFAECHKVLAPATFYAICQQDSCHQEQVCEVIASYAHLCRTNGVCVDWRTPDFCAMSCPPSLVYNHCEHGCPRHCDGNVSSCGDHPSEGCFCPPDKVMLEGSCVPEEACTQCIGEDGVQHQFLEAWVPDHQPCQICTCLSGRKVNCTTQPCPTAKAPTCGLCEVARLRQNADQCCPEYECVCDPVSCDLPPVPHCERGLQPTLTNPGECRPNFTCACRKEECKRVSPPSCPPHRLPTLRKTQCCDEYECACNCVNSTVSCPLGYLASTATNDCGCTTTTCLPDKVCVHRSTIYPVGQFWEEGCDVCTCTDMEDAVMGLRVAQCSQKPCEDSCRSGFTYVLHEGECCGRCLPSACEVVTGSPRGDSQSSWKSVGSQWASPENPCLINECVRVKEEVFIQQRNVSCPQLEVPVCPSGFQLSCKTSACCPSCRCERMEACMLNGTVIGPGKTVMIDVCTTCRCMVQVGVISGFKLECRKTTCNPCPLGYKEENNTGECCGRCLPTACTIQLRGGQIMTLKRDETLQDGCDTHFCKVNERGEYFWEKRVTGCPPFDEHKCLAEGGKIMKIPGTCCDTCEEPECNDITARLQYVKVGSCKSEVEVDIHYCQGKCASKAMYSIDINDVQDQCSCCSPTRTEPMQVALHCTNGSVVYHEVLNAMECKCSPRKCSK

The term Kd denotes the equilibrium constant for the complex coming apart. In the case of `C=CC1=C(C)/C(=C/c2[nH]c(Cc3[nH]c(/C=C4\NC(=O)C(C)=C4C=C)c(C)c3CCC(=O)O)c(CCC(=O)O)c2C)NC1=O` [unconjugated bilirubin], the Kd in test [1] came out at 17.5 ± 4 µM; in test [2], 57.5 ± 80.7 µM; in test [3] it was 29.6 ± 40.1 µM.
